Reference: patent US20140243414A1, “PHARMACEUTICAL COMPOSITIONS OF CETP INHIBITORS” (Japan Tobacco Inc., priority 2003, published 2014)
Where two headings read alike, the source gives them in different places.

What was measured:
CETP [1] = target: T1, CETP (Homo sapiens, UniProt P11597); assay: CETP activity change from pre-dose after single oral doses, Caucasian males (Example 5); type: in vivo; details: for change in vivo at 100 mg: 100 mg with food; for change in vivo at 100 mg / change in vivo at 300 mg / change in vivo at 600 mg / change in vivo at 900 mg / change in vivo at 1200 mg / change in vivo at 1500 mg / change in vivo at 1800 mg: read-out: Percent change from pre-dose in CETP activity (mean); for change in vivo at 300 mg: 300 mg with food; for Decrease in CETP activity relative to pre-dose: 6 hours after administration; for change in vivo at 600 mg: 600 mg with food; for change in vivo at 900 mg: 900 mg with food; for change in vivo at 1200 mg: 1200 mg with food; for change in vivo at 1500 mg: 1500 mg with food; for change in vivo at 1800 mg: 1800 mg with food
T1 construct: from tissue; host or cells: blood / plasma of human subjects dosed orally with Compound I
T1 sequence (P11597 18-493): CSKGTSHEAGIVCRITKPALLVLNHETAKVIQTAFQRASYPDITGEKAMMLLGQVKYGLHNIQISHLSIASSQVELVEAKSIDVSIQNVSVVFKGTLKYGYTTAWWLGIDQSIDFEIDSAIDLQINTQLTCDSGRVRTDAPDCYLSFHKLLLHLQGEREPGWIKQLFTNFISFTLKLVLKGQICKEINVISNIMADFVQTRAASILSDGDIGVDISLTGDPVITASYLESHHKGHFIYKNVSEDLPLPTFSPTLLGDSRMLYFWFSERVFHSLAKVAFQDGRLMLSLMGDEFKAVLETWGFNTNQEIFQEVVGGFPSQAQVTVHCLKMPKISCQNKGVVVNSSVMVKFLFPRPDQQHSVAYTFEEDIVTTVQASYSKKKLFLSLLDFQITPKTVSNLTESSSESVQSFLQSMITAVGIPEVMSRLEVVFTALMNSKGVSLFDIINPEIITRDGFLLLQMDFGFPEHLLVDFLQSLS
Method: Administration, dosing, and sampling schedules were substantially similar to those described in Example 1. The tablets were prepared as described in Example 1.
The procedure for determining CETP activity was substantially similar to the procedures described in Tollefson et al., Methods Enzymol., 129, 797-816 (1986), and Kato et al., J. Biol. Chem., 264, 4082-4087 (1989).
CETP activity and changes from baseline (pre-dose) were measured, and the resulting data is summarized in Table 6 as percentage change from baseline.

Solubility in water = type: physicochemical
CETP [2] = target: T1, CETP; assay: Relative CETP activity after single oral doses, Japanese males (Example 7); type: in vivo; details: for response vs control in vivo at 100 mg: 100 mg with food; for response vs control in vivo at 100 mg / response vs control in vivo at 300 mg / response vs control in vivo at 600 mg / response vs control in vivo at 900 mg / response vs control in vivo at 1200 mg / response vs control in vivo at 1500 mg / response vs control in vivo at 1800 mg: read-out: Percent CETP activity relative to pre-dose; for response vs control in vivo at 300 mg: 300 mg with food; for response vs control in vivo at 600 mg: 600 mg with food; for response vs control in vivo at 900 mg: 900 mg with food; for response vs control in vivo at 1200 mg: 1200 mg with food; for response vs control in vivo at 1500 mg: 1500 mg with food; for response vs control in vivo at 1800 mg: 1800 mg with food
Method: Administration, dosing, and sampling schedules were commensurate with those described in Example 1. The tablets were prepared as described in Example 1.
Relative CETP activities (calculated as a percentage of baseline CETP activity) and standard deviations (SD) were measured, and the resulting data is summarized in Table 8.

## CCC(CC)CC1(C(=O)Nc2ccccc2SC(=O)C(C)C)CCCCC1 [Compound I, S-[2-([[1-(2-ethylbutyl)cyclohexyl]carbonyl]amino)phenyl]2-methylpropanethioate]
CETP [1]; 1 h
  change in vivo at 100 mg: -2%
  change in vivo at 300 mg: 0%
  change in vivo at 600 mg: -3%
  change in vivo at 900 mg: -3%
  change in vivo at 1200 mg: -3%
  change in vivo at 1500 mg: -3%
  change in vivo at 1800 mg: -3%
CETP [1]; 2 h
  change in vivo at 100 mg: -2%
  change in vivo at 300 mg: -7%
  change in vivo at 600 mg: -12%
  change in vivo at 900 mg: -23%
  change in vivo at 1200 mg: -17%
  change in vivo at 1500 mg: -32%
  change in vivo at 1800 mg: -23%
CETP [1]; 4 h
  change in vivo at 100 mg: -5%
  change in vivo at 300 mg: -12%
  change in vivo at 600 mg: -29%
  change in vivo at 900 mg: -48%
  change in vivo at 1200 mg: -58%
  change in vivo at 1500 mg: -72%
  change in vivo at 1800 mg: -67%
CETP [1]; 6 h
  change in vivo at 100 mg: -7%
  change in vivo at 300 mg: -13%
  change in vivo at 600 mg: -36%
  change in vivo at 900 mg: -55%
  change in vivo at 1200 mg: -71%
  change in vivo at 1500 mg: -83%
  change in vivo at 1800 mg: -74%
CETP [1]; 8 h
  change in vivo at 100 mg: -6%
  change in vivo at 300 mg: -13%
  change in vivo at 600 mg: -36%
  change in vivo at 900 mg: -53%
  change in vivo at 1200 mg: -70%
  change in vivo at 1500 mg: -81%
  change in vivo at 1800 mg: -71%
CETP [1]; 24 h
  change in vivo at 100 mg: -1%
  change in vivo at 300 mg: -6%
  change in vivo at 600 mg: -21%
  change in vivo at 900 mg: -28%
  change in vivo at 1200 mg: -43%
  change in vivo at 1500 mg: -48%
  change in vivo at 1800 mg: -42%
CETP [1]; post-study
  change in vivo at 100 mg: -5%
  change in vivo at 300 mg: 2%
  change in vivo at 600 mg: -6%
  change in vivo at 900 mg: -5%
  change in vivo at 1200 mg: -4%
  change in vivo at 1500 mg: 0%
  change in vivo at 1800 mg: -5%
CETP [1]; 300 mg
  Decrease in CETP activity relative to pre-dose: 13%
CETP [1]; 600 mg
  Decrease in CETP activity relative to pre-dose: 36%
CETP [1]; 900 mg
  Decrease in CETP activity relative to pre-dose: 55%
Solubility in water
  solubility: < 0.1 µg/mL
CETP [2]; post-study
  response vs control in vivo at 100 mg: 99.2%
  response vs control in vivo at 300 mg: 96.1%
  response vs control in vivo at 600 mg: 103%
  response vs control in vivo at 900 mg: 95.1%
  response vs control in vivo at 1200 mg: 95.2%
  response vs control in vivo at 1500 mg: 96.9%
  response vs control in vivo at 1800 mg: 93%
CETP [2]; 300 mg, 6 hours after administration
  Decrease in CETP activity relative to pre-dose: about 19.5%
CETP [2]; 600 mg, 6 hours after administration
  Decrease in CETP activity relative to pre-dose: about 62%
CETP [2]; 900 mg, 4 hours after administration
  Decrease in CETP activity relative to pre-dose: about 76%
CETP [2]; 1 h, 1 h
  response vs control in vivo at 100 mg: 96.2%
  response vs control in vivo at 300 mg: 100%
  response vs control in vivo at 600 mg: 100%
  response vs control in vivo at 900 mg: 100%
  response vs control in vivo at 1200 mg: 94.2%
  response vs control in vivo at 1500 mg: 101%
  response vs control in vivo at 1800 mg: 85.3%
CETP [2]; 2 h, 2 h
  response vs control in vivo at 100 mg: 92%
  response vs control in vivo at 300 mg: 90.7%
  response vs control in vivo at 600 mg: 87.8%
  response vs control in vivo at 900 mg: 52.1%
  response vs control in vivo at 1200 mg: 54%
  response vs control in vivo at 1500 mg: 85.7%
  response vs control in vivo at 1800 mg: 15.6%
CETP [2]; 4 h, 4 h
  response vs control in vivo at 100 mg: 93.2%
  response vs control in vivo at 300 mg: 83.1%
  response vs control in vivo at 600 mg: 52.6%
  response vs control in vivo at 900 mg: ~24%
  response vs control in vivo at 1200 mg: 12.1%
  response vs control in vivo at 1500 mg: 13.3%
  response vs control in vivo at 1800 mg: 6%
CETP [2]; 6 h, 6 h
  response vs control in vivo at 100 mg: 90.4%
  response vs control in vivo at 300 mg: ~80.5%
  response vs control in vivo at 600 mg: ~38%
  response vs control in vivo at 900 mg: 24.1%
  response vs control in vivo at 1200 mg: 10.5%
  response vs control in vivo at 1500 mg: 10.6%
  response vs control in vivo at 1800 mg: 8.4%
CETP [2]; 8 h, 8 h
  response vs control in vivo at 100 mg: 90.4%
  response vs control in vivo at 300 mg: 80.6%
  response vs control in vivo at 600 mg: 39.1%
  response vs control in vivo at 900 mg: 29.8%
  response vs control in vivo at 1200 mg: 14.7%
  response vs control in vivo at 1500 mg: 15.4%
  response vs control in vivo at 1800 mg: 12.2%
CETP [2]; 24 h, 24 h
  response vs control in vivo at 100 mg: 99.2%
  response vs control in vivo at 300 mg: 88.8%
  response vs control in vivo at 600 mg: 65.5%
  response vs control in vivo at 900 mg: 60.5%
  response vs control in vivo at 1200 mg: 47.6%
  response vs control in vivo at 1500 mg: 53.7%
  response vs control in vivo at 1800 mg: 49.5%
